Test results: patent US20090291928A1, “COMPOSITION FOR AMELIORATION/PREVENTION OF ADVERSE SIDE EFFECT IN STEROID THERAPY” (AJINOMOTO CO., INC., priority 2006, published 2009)

Test system: dexamethasone administered rat
Assay: Muscular atrophy prophylactic effect of BCAA in dexamethasone administered rat (Example 1)
Type: in vivo
Conditions: effect of dexamethasone administration itself, 600 μg/kg i.p. 5 days
Experimental: Dexamethasone (600 μg/kg) was intraperitoneally administered to rats (SD; 10-11-week-old) for 5 consecutive days. An isoleucine, leucine and valine (weight ratio 1:2:1.2) blend (BCAA) administration group was orally administered with 0.75 g/kg of BCAA above simultaneously for 5 consecutive days. A vehicle group was orally administered with distilled water consecutively in the same manner.
On day 5, the rats were autopsied and analyzed for muscular strength function evaluation, blood glucose level and plasma insulin level using a feed intake, body weight profile, muscle weight, grip strength measurement apparatus.
As the control group, pair-feeding normal rats were used.

C[C@@H]1C[C@H]2[C@@H]3CCC4=CC(=O)C=C[C@]4(C)[C@@]3(F)[C@@H](O)C[C@]2(C)[C@@]1(O)C(=O)CO [dexamethasone]
blood glucose level (SD rats (FIG. 4)): increased | insulin level (SD rats (FIG. 5)): increased
